Results on one compound are retold here after article PMC5674511, “Increase of enzyme activity through specific covalent modification with fragments” (Chemical Science, 2017).

The target in assay [1] is T1, BtGH84 (Bacteroides thetaiotaomicron, UniProt Q89ZI2, C441S/C675S/Y571C).
T1 construct: gene BT_4395; recombinant purified enzyme
T1 sequence (Q89ZI2 22-737 C441S/Y571C/C675S): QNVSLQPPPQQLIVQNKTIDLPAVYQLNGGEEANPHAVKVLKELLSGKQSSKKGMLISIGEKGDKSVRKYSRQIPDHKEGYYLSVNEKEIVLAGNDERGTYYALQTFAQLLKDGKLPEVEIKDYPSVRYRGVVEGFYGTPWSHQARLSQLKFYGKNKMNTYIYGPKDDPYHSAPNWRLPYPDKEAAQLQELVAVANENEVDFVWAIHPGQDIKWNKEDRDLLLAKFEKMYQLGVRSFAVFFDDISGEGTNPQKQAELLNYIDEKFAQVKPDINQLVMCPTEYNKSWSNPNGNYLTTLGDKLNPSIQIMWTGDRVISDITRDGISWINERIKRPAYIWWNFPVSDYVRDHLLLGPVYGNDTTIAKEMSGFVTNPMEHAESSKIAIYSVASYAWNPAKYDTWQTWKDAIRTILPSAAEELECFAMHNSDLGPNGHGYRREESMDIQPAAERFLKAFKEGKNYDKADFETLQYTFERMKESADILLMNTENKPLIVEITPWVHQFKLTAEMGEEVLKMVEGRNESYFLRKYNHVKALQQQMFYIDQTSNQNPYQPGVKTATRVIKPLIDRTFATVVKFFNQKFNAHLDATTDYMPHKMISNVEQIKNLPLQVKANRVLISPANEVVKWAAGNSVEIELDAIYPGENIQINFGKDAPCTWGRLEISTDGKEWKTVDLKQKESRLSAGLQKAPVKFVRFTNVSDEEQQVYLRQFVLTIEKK
The experiment in a line: binding constant; method not stated in main text. Particulars: read-out: BtGH84_TM / None. The text has this: (§1) binding constant; method not stated in main text on BtGH84

The target of assay [2] is T2, BtGH84 (Bacteroides thetaiotaomicron, UniProt Q89ZI2).
T2 construct: gene BT_4395; recombinant purified enzyme
T2 sequence (Q89ZI2 22-737): T1 sequence (Q89ZI2 22-737 C441S/Y571C/C675S)
The experiment in a line: binding constant; method not stated in main text. Conditions: read-out: BtGH84 / None.
Description: as §1

Turning to `CCNC1=N[C@@H]2[C@@H](O)[C@H](O)[C@@H](CO)O[C@@H]2S1` [compound 2, thiamet-G], the Kd is 52 ± 5.7 nM at BtGH84 [1] and 50 nM on BtGH84 [2].
